Experimental data reported in patent US8815796B2, “Polyheterocyclic compounds highly potent as HCV inhibitors” (AB Pharma Ltd., priority 2010, dated 2014).

Molecular target: T1, HCV NS3-4A protease (Hepatitis C virus genotype 1a, UniProt P27958)
T1 construct: HCV NS3-4A protease
Test: HCV NS3-4A protease assay in vitro (FRET-S substrate)
Format: biochemical
Conditions: HCV NS3-4A protease inhibition, 37° C., class symbols; read-out: NS3-NS4A IC50
Description: HCV NS3-4A Protease Assay In Vitro.
The assay was conducted in Buffer A containing 30 mM NaCl, 5 mM CaCl2, 10 mM DTT, 50 mM Tris (pH7.8), using the Ac-Asp-Glu-Asp(EDANS)-Glu-Glu-Abu-ψ-[COO]-Ala-Ser-Lys (DABCYL)-NH2 (FRET-S) fluorescent peptide (AnaSpec, USA) as substrate. Briefly, 140 μL buffer A, 20 μL compounds dissolved in buffer A with different concentration and 20 μL HCV NS3-4A protease diluted in buffer A were added into 96-well plate respectively and mixed well. The reaction was initiate with adding 20 μL of FRET-S. Reactions were continuously monitored at 37° C. using a BMG Polarstar Galaxy (MTX Lab Systems, Inc. USA), with excitation and emission filters of 355 nm and 520 nm, respectively. The 50% inhibitory concentration (IC50) was calculated with Reed & Muench methods.

T1 sequence (P27958 1027-1657): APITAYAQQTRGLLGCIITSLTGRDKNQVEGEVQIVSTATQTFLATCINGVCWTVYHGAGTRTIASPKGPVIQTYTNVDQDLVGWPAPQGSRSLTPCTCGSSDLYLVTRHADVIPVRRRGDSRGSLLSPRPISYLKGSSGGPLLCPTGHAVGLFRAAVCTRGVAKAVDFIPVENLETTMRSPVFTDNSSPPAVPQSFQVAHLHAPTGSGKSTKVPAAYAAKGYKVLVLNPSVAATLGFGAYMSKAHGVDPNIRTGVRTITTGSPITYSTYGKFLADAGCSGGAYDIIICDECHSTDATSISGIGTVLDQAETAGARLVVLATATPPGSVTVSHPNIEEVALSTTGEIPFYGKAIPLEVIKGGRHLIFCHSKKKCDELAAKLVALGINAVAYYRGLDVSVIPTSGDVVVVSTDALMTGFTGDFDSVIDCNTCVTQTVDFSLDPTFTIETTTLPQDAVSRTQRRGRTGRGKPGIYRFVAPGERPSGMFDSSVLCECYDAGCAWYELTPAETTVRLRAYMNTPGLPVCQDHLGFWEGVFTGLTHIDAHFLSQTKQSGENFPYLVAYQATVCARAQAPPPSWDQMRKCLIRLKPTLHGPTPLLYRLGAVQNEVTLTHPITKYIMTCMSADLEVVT
T1 sequence (P27958 1658-1711): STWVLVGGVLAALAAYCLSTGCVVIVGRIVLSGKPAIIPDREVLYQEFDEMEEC

SMILES | IC50 [nM]
CC(C)(C)OC(=O)N[C@H]1CCCCC/C=C\[C@@H]2C[C@@]2(C(=O)O)NC(=O)[C@@H]2C[C@@H](OC(=O)N3Cc4ccc5c(c4C3)OCO5)CN2C1=O [Compound 11a] | > 200
CC(C)(C)OC(=O)N[C@H]1CCCCC/C=C\[C@@H]2C[C@@]2(C(=O)O)NC(=O)[C@@H]2C[C@@H](OC(=O)N3Cc4ccc5c(c4C3)OCCO5)CN2C1=O [Compound 11b] | > 200
CC(C)(C)OC(=O)N[C@H]1CCCCC/C=C\[C@@H]2C[C@@]2(C(=O)O)NC(=O)[C@@H]2C[C@@H](OC(=O)N3Cc4cc5c(cc4C3)OCCO5)CN2C1=O [Compound 11c] | > 200
CC(C)(C)OC(=O)N[C@H]1CCCCC/C=C\[C@@H]2C[C@@]2(C(=O)O)NC(=O)[C@@H]2C[C@@H](OC(=O)N3Cc4cc5c(cc4C3)OCO5)CN2C1=O [Compound 11d] | > 200
CC(C)(C)OC(=O)N[C@H]1CCCCC/C=C\[C@@H]2C[C@@]2(C(=O)NS(=O)(=O)C2CC2)NC(=O)[C@@H]2C[C@@H](OC(=O)N3Cc4cccc(F)c4C3)CN2C1=O [Compound 12-Ref, reference compound] | < 30
CC(C)(C)OC(=O)N[C@H]1CCCCC/C=C\[C@@H]2C[C@@]2(C(=O)NS(=O)(=O)C2CC2)NC(=O)[C@@H]2C[C@@H](OC(=O)N3Cc4ccc5c(c4C3)OCO5)CN2C1=O [Compound 12a] | < 30
CC(C)(C)OC(=O)N[C@H]1CCCCC/C=C\[C@@H]2C[C@@]2(C(=O)NS(=O)(=O)C2CC2)NC(=O)[C@@H]2C[C@@H](OC(=O)N3Cc4ccc5c(c4C3)OCCO5)CN2C1=O [Compound 12b] | < 30
CC(C)(C)OC(=O)N[C@H]1CCCCC/C=C\[C@@H]2C[C@@]2(C(=O)NS(=O)(=O)C2CC2)NC(=O)[C@@H]2C[C@@H](OC(=O)N3Cc4cc5c(cc4C3)OCCO5)CN2C1=O [Compound 12c] | < 30
CC(C)(C)OC(=O)N[C@H]1CCCCC/C=C\[C@@H]2C[C@@]2(C(=O)NS(=O)(=O)C2CC2)NC(=O)[C@@H]2C[C@@H](OC(=O)N3Cc4cc5c(cc4C3)OCO5)CN2C1=O [Compound 12d] | < 30
CC(C)S(=O)(=O)NC(=O)[C@@]12C[C@H]1/C=C\CCCCC[C@H](NC(=O)OC(C)(C)C)C(=O)N1C[C@H](OC(=O)N3Cc4ccc5c(c4C3)OCO5)C[C@H]1C(=O)N2 [Compound 12e] | < 30
CC(C)S(=O)(=O)NC(=O)[C@@]12C[C@H]1/C=C\CCCCC[C@H](NC(=O)OC(C)(C)C)C(=O)N1C[C@H](OC(=O)N3Cc4ccc5c(c4C3)OCCO5)C[C@H]1C(=O)N2 [Compound 12f] | < 30

Other lines, results leading:

IC50 [nM] | SMILES
< 30 | CC(C)S(=O)(=O)NC(=O)[C@@]12C[C@H]1/C=C\CCCCC[C@H](NC(=O)OC(C)(C)C)C(=O)N1C[C@H](OC(=O)N3Cc4cc5c(cc4C3)OCCO5)C[C@H]1C(=O)N2 [Compound 12g]
< 30 | CC(C)S(=O)(=O)NC(=O)[C@@]12C[C@H]1/C=C\CCCCC[C@H](NC(=O)OC(C)(C)C)C(=O)N1C[C@H](OC(=O)N3Cc4cc5c(cc4C3)OCO5)C[C@H]1C(=O)N2 [Compound 12h]
30 to 200 | O=C1N[C@]2(C(=O)NS(=O)(=O)C3CC3)C[C@H]2/C=C\CCCCC[C@H](N2CCCS2(=O)=O)C(=O)N2C[C@H](OC(=O)N3Cc4cc5c(cc4C3)OCCO5)C[C@@H]12 [Compound 12j]
< 30 | O=C1N[C@]2(C(=O)NS(=O)(=O)C3CC3)C[C@H]2/C=C\CCCCC[C@H](N2CCCS2(=O)=O)C(=O)N2C[C@H](OC(=O)N3Cc4cc5c(cc4C3)OCO5)C[C@@H]12 [Compound 12k]
30 to 200 | O=C1N[C@]2(C(=O)NS(=O)(=O)C3CC3)C[C@H]2/C=C\CCCCC[C@H](N2CCCS2(=O)=O)C(=O)N2C[C@H](OC(=O)N3Cc4cccc(F)c4C3)C[C@@H]12 [Compound 12m]
< 30 | CC(C)(C)OC(=O)N[C@H]1CCCCC/C=C\[C@@H]2C[C@@]2(C(=O)NS(=O)(=O)C2CC2)NC(=O)[C@@H]2C[C@@H](OC(=O)N3Cc4ccc5c(c4C3)OCCCO5)CN2C1=O [Compound 12n]
< 30 | CC(C)(C)OC(=O)N[C@H]1CCCCC/C=C\[C@@H]2C[C@@]2(C(=O)NS(=O)(=O)C2CC2)NC(=O)[C@@H]2C[C@@H](OC(=O)N3Cc4cc5c(cc4C3)OCCCO5)CN2C1=O [Compound 12p]
